Measured values taken from US9937104B2, “Nanostructured antibacterial and remineralizing dental bonding agents and dental bonding systems” (UNIVERSITY OF MARYLAND, BALTIMORE, priority 2012, dated 2018).
“Also recorded” adds a separate entry of the source.

Key:
[1] = test system: Human gingival fibroblasts (HGF); assay type: cell-based; conditions: MTT
Procedure: Human gingival fibroblasts (HGF, ScienCell) were cultured in a fibroblast medium (FM). […] Then, HGF were seeded in 96-well plates at 5,000 cells per well. […] After 4 h, the unreacted dye was removed and 150 μL of dimethyl sulfoxide was added. Absorbance was measured via the microplate reader at 492 nm. […] Cells were also live/dead stained (Molecular Probes) and examined with fluorescence microscopy (TE2000-S, Nikon) as shown in FIG. 15B.

[2] = test system: S. mutans (ATCC 700610, UA159); test: MIC and MBC by serial microdilution; assay type: cell-based, Streptococcus mutans; conditions: for MIC and MBC relative to QADM: compared with QADM
Procedure: MIC and MBC were measured using S. mutans (ATCC 700610, UA159, American Type Culture, Manassas, Va.). S. mutans is a cariogenic, aerotolerant anaerobic bacterium and the primary causative agent of dental caries (Loesche 1986). MIC and MBC were determined via serial microdilution assays (Imazato S et al. 2006; Huang L et al. 2011). Unpolymerized DMAHM or DMADM monomer was dissolved in brain heart infusion (BHI) broth (BD, Franklin Lakes, N.J.) to give a final concentration of 200 mg/mL. From these starting solutions, serial two fold dilutions were made into 1 mL volumes of BHI broth. 15 μL of stock S. mutans was added to 15 mL of BHI broth with 0.2% sucrose and incubated at 37° C. with 5% CO2. Overnight cultures of S. mutans were adjusted to 2×10^6 CFU/mL with BHI broth, and 50 μL of inocula was added to each well of a 96-well plate containing 50 μL of a series of antibacterial monomer dilution broths. BHI broth with 1×10^6 CFU/mL bacteria suspension without antibacterial agent served as negative control. Chlorhexidine diacetate (CHX) (Sigma, St. Louis, Mo.) served as positive control. The previously-synthesized QADM (Antonucci J M et al. 2012; Cheng L et al. 2012a) served as an antibacterial monomer control. After incubation at 37° C. in 5% CO2 for 48 h, the wells were read for turbidity, referenced by the negative and positive control wells. MIC was determined as the endpoint (the well with the lowest antibacterial agent concentration) where no turbidity could be detected with respect to the controls (Huang L et al. 2011). To determine MBC, an aliquot of 50 μL from each well without turbidity was inoculated on BHI agar plates and incubated at 37° C. in 5% CO2 for 48 h. MBC was determined as the lowest concentration of antibacterial agent that produced no colonies on the plate. The tests were performed in triplicate (Huang L et al. 2011).
The use of S. mutans (ATCC 700610, American Type Culture, Manassas, Va.) was approved by the University of Maryland. S. mutans is a cariogenic, aerotolerant anaerobic bacterium and the primary causative agent of dental caries (Deng et al. 2004). MIC and MBC were determined via serial microdilution assays (Imazato et al. 2006; Huang et al. 2011). Unpolymerized DMAHM or DMADDM monomer was dissolved in brain heart infusion (BHI) broth (BD, Franklin Lakes, N.J.) to a concentration of 200 mg/mL. From these starting solutions, serial two fold dilutions were made into 1 mL volumes of BHI broth. […] The wells were read for turbidity after incubation at 37° C. in 5% CO2 for 48 h, referenced by the negative and positive control wells. MIC was defined as the endpoint (the well with the lowest antibacterial agent concentration) where no turbidity could be detected with respect to the controls (Huang et al. 2011). […]

[3] = test system: mature biofilms (48 hours); test: Mature biofilm (48 hours) CFU, antibacterial monomers in primer and adhesive; assay type: cell-based; conditions: 10% mass fraction in primer and adhesive (P&A control)
Procedure: FIG. 29. Effect of antibacterial monomers from Table 1, with chain length (CL) of 3, 6, 9, 12, 16 and 18, on mature biofilms (48 hours). Each monomer was mixed into the primer and adhesive control (P&A control) at 10% mass fraction (mean+−sd; n=6). […] CL=16 reduced the biofilm CFU by 4 orders of magnitude, compared to control.
FIG. 31. Effect of mass fraction of the antibacterial monomer DMAHDM (with chain length of 16) on mature biofilms (48 hours) (mean+−sd; n=6). […] DMAHDM at 10% mass fraction reduced the biofilm CFU by nearly 4 orders of magnitude, compared to control.

MBC and MIC potency relative to chain length 12 ([2]; compared with chain length 12 monomer) | SMILES | Cytotoxicity compared with BisGMA [1] | MIC and MBC relative to those of DMAHM ([2]; S. mutans, compared with DMAHM) | MIC and MBC relative to QADM ([2]; S. mutans) | Reduction of mature biofilm CFU compared to control [3]
– | C=C(C)C(=O)OCC[N+](C)(C)CCCCCCCCCCCC.[Br-] [DMADDM, dimethylamino dodecyl methacrylate] | less cytotoxic | more than two orders of magnitude lower; also recorded: three orders of magnitude lower | four orders of magnitude lower | –
an order of magnitude more potent | C=C(C)C(=O)OCC[N+](C)(C)CCCCCCCCCCCCCCCC.[Br-] [DMAHDM, dimethylamino hexadecyl methacrylate] | – | – | – | 4 orders of magnitude
– | C=C(C)C(=O)OCC[N+](C)(C)CCCCCC.[Br-] [DMAHM] | – | – | a lower concentration, by an order of magnitude | –
– | C=C(C)C(=O)OCCCCCCCCCCCC[n+]1ccccc1.[Br-] [MDPB, reference compound] | less cytotoxic | – | – | –
